Measured values: US10675254B2, “Sphingosine-1-phosphate receptor agonist iontophoretic devices and methods of using the same” (Teikoku Seiyaku Co., Ltd., priority 2013, dated 2020)
Structures can show the parent of a compound that is named as a salt.

Assays:
[1] = In vitro passive delivery of Fingolimod HCl through epidermis of cadaver skin, Franz cell (control); assay type: in vitro ADME; conditions: for Passive Maximum delivery efficiency: donor 0.5% Fingolimod HCl solution, 8 hr; for Passive Maximum delivery efficiency / Passive Average delivery efficiency: 1.77 cm2; for Passive Average delivery efficiency: 48 hr
Source text: Passive delivery under the same experimental conditions was also concurrently investigated with the iontophoretic delivery and employed as a control. […] The maximum efficiency could be reached at a concentration of less than 0.25%. After 8 hr., some passive delivery of fingolimod HCl through the skin was also observed. This observation may have resulted from the imperfection of the skin and the experimental design. In this study, the presence of pores from the micro-sized damage of the epidermis during the preparation of the epidermal membrane and from the appendages (hair follicles, sweat ducts) might facilitate the contact between donor and receptor site and contribute to the passive delivery of fingolimod HCl solution into the receptor solution.

[2] = In vitro iontophoretic delivery (active + passive) of Fingolimod HCl through epidermis of cadaver skin, Franz cell; assay type: in vitro ADME; conditions: for Active + passive Maximum delivery efficiency: donor 0.5% Fingolimod HCl solution, 8 hr; for Active + passive Maximum delivery efficiency / Active + passive Average delivery efficiency: 0.425 mA, 1.77 cm2; for Active + passive Average delivery efficiency: Ag anode/AgCl cathode, 48 hr
[3] = orally administered fingolimod HCl; cited from earlier work
[4] = donor 0.25% fingolimod HCl solution, receptor 0.09% NaCl
[5] = donor 0.50% fingolimod HCl solution, receptor 0.09% NaCl
[6] = donor 0.75% fingolimod HCl solution, receptor 0.09% NaCl
[7] = donor 1% fingolimod HCl solution, receptor 0.09% NaCl
[8] = donor 2% fingolimod HCl solution, receptor 0.09% NaCl

Passive Maximum delivery efficiency ([1]; receptor 0.09% NaCl): 0 ug/cm2/hr
Passive Maximum delivery efficiency ([1]; receptor 0.9% NaCl): 0 ug/cm2/hr
Passive Average delivery efficiency [1, 4]: 0.8 ug/cm2/hr
Passive Average delivery efficiency [1, 5]: 0.9 ug/cm2/hr
Passive Average delivery efficiency [1, 6]: 0.8 ug/cm2/hr
Passive Average delivery efficiency [1, 7]: 0.7 ug/cm2/hr
Passive Average delivery efficiency [1, 8]: 1.4 ug/cm2/hr
passive delivery detected ([1]; over an 8 h period, 0.5% Fingolimod HCl solution): no Fingolimod HCl delivery was detected
delivery efficiency (active+passive) ([2]; 0.25, 0.5, 0.75, 1 and 2% fingolimod HCl solutions, current 0.425 mA, area 1.77 cm^2): about 4.5 μg/cm2/hr
Active + passive Maximum delivery efficiency ([2]; Ag/AgCl electrodes, receptor 0.9% NaCl): 5.0 ug/cm2/hr
Active + passive Maximum delivery efficiency ([2]; Zn/AgCl electrodes, receptor 0.09% NaCl): 16.8 ug/cm2/hr
Active + passive Maximum delivery efficiency ([2]; Zn/AgCl electrodes, receptor 0.9% NaCl): 5.8 ug/cm2/hr
Active + passive Average delivery efficiency [2, 4]: 4.8 ug/cm2/hr
Active + passive Average delivery efficiency [2, 5]: 5.0 ug/cm2/hr
Active + passive Average delivery efficiency [2, 6]: 4.5 ug/cm2/hr
Active + passive Average delivery efficiency [2, 7]: 4.5 ug/cm2/hr
Active + passive Average delivery efficiency [2, 8]: 4.2 ug/cm2/hr
SMILES: CCCCCCCCc1ccc(CCC(N)(CO)CO)cc1 [Fingolimod HCl, 2-amino-2-[2-(4-octylphenyl)ethyl]propane-1,3-diol]
peak to trough fluctuations, non-phosphorylated fingolimod [3]: ≤ 20%
peak to trough fluctuations, phosphorylated (active) form of fingolimod [3]: ≤ 45%
